From patent US8012929B2, “Peptides directed for diagnosis and treatment of amyloid-associated diseases” (Tel Aviv University Future Technology Development L.P., priority 2002, dated 2011)
Read-outs that look alike come from different tables or passages of the source. Square brackets hold non-standard residues; d marks the D form. Peptide text beside a SMILES is read from it. Aib = CC(C)(N)C(=O)O

Legend:
CYP450 1A2 = target: T1, CYP450 1A2 (Homo sapiens, UniProt P05177); assay: Human CYP450 screen 1A2; type: in vitro ADME
T1 sequence (P05177 1-516): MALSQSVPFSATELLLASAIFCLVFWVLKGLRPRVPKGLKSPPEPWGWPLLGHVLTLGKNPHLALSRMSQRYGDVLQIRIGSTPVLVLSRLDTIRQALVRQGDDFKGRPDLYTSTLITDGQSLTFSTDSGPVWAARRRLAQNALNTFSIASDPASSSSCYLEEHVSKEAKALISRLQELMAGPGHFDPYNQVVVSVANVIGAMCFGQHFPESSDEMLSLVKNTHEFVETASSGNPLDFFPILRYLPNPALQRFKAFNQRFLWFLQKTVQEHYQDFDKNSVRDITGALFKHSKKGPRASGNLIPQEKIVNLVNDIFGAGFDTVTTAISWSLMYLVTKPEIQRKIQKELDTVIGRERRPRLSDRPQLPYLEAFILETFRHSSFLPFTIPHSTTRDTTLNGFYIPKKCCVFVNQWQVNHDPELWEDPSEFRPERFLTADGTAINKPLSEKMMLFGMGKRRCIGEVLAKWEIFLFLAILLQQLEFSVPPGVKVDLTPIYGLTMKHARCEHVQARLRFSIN
From the text: (§1) For the metabolic stability assay, Human cytochrom P450 (CYP450) screens were used. The cytochrom P450 isoenzymes, which are located in the intestines, liver, lung, kidney and brain, are involved in important drug interactions. Drug metabolism occurs in two phases—Phase I involves oxidation, reduction, and hydrolysis. Phase II involves synthesis and conjugation. The CYP 450 isoenzymes are involved in Phase I oxidative reactions. CYP 450 interactions generally result from one of two processes—Induction, where a substance stimulates the synthesis of the enzyme and metabolic capacity is increased, and inhibition, where competitive binding at an enzyme's binding site(s) occurs. A drug with a high affinity for an enzyme will slow the metabolism of any low affinity drug. CYP 3A3/4 is the most abundant CYP 450 isoenzyme in humans and is responsible for the metabolism of the widest range of drugs/substances. (CYP450) screens used were 1A2, 2C9, 2C19, 2D6 and 3A4.

HepG2 cells = assay: Cytotoxicity assay in hepatocytes; type: cell-based; settings: up to 2.5×10^−4 M, 3H-Thymidine incorporation and Alamar-Blue assays
Method: Cytotoxicity assay in hepatocytes—Following culture (37° C. in an atmosphere of 5% CO2 and 100% humidity), HepG2 cells (ATCC Accession No: HB-8065) were seeded at a density of 5000 cells/well in 96 well optical plate (Nunc, Rochester, N.Y.). Culture was maintained in the logarithmic phase throughout the experiment. One day after seeding, peptides were dissolved in DMSO (1:10) and added to the wells to achieve final concentrations of 2.5×10^−4−1×10^−8. Each plate column (8 wells) was used to test one peptide in one concentration. A day following peptide addition, ^3H-Thymidine was added to the cell culture, and two days following addition cells were harvested. ^3H-Thymidine incorporation to the DNA of proliferating cells was measured in Top Count NTX counter (Packard, Quebec, Canada). […] The indicator was incubated for 18 hours and fluorescence was measured with 544 nm excitation/590 nm emission wavelengths. Data was presented as the mean amount of Alamar-Blue fluorescence or ^3H-Thymidine CPM monitored per well. Average was calculated per plate column. For Alamar-Blue signals standard deviation (SD) was calculated, while for ^3H Thymidine signal, standard error (SE) was calculated. […] Equivocal results were analyzed using oneway (ANOVA) with Dunnett Multiple comparison Test.

[1] = Serum stability, mouse serum (HPLC); type: in vitro ADME; settings: 37° C., 2 and 5 hours
From the text: D-Trp-Aib serum stability—Regardless of administration route, all drugs penetrate and distribute in the body via the blood system. This milieu is based not only on cells and buffering compounds, but also on proteins, carbohydrates, lipid-protein micelles, etc. Serum proteins mainly contain carrier proteins, such as albumin, but also contain many enzymes that might treat the drug as a substrate. Thus, the susceptibility of any drug entering this environment should be evaluated. The stability of D-Trp-Aib spiked into serum was evaluated by analysis of intact sample concentrations at different time points. D-Trp-Aib (250 μg/ml PBS) was incubated with mouse (Harlan Biotech, Israel) or human (obtained from Sheba medical center, Tel Hashomer, Israel) sera or PBS (1:1, 37° C.), and aliquots were analyzed by HPLC analysis at times 0, 2 and 5 hrs. The reaction was stopped and precipitation was effected by the addition of acetonitrile (Baker, Phillipsburg N.J.) and 10% TCA. Following centrifugation (10,000 g, 5 min), Supernatant was transferred to HPLC analysis. Mean amounts of D-Trp-Aib (μg)±s.e.m. were calculated by an internal calibration curve. […]

[2] = mouse, in vivo
Method: Animals were treated following a 4 hour fast, with water ad libitum, and fed 2 hours after administration. Thereafter, animals were sacrificed at different time intervals (5 minutes-8 hours; 3 animals in each group, at every time interval were sacrificed by sodium pentobarbital anesthesia followed by exanguination) and blood (plasma), brain, liver, kidney and pancreas were collected and later analyzed. Plasma and brain tissue samples were analyzed by high-performance liquid chromatography with tandem mass spectrometry (LC-MS/MS).
In case of brain tissue, only AUC0-4 was calculated. All parameters were calculated using the software PK solutions Version 2.0 for Noncompartmental Pharmacokinetics Data analysis (Summit Research Services, Montrose, Colo.).

CYP450 2C9 = CYP450 2C9 (Homo sapiens, UniProt P11712); assay: Human CYP450 screen 2C9; type: in vitro ADME
From the text: as §1

CYP450 3A4 = CYP450 3A4 (Homo sapiens, UniProt P08684); assay: Human CYP450 screen 3A4; type: in vitro ADME
From the text: as §1

PC-12 cells = assay: Inhibition of β-amyloid cytotoxicity in PC-12 cells (MTT); type: cell-based; settings: 5 μM Aβ1-40, 6.5 μM-150 μM D-Trp-Aib, 24 hr, pre-incubated 21 days
Method: Prior to incubation with the PC-12 cells, 5× concentrated Aβ1-40 (25 μM) and 5× concentrated D-Trp-Aib were pre-incubated for 21 days.
Cell viability—The MTT-assay is a very sensitive assay measuring the mitochondrial dehydrogenase activity in viable cells. Following incubation, MTT reduction assay was undertaken according to the method described by Mosmann, [J. Immunol. Meth, 55-63 (1983)], cell viability was calculated by subtracting Aβ1-40 samples absorbance from non-Aβ1-40 controls containing the same D-Trp-Aib concentrations.

[3] = inhaled or intranasal, 20 mg/kg

Chain of CYP450 3A4 (P08684 whole entry): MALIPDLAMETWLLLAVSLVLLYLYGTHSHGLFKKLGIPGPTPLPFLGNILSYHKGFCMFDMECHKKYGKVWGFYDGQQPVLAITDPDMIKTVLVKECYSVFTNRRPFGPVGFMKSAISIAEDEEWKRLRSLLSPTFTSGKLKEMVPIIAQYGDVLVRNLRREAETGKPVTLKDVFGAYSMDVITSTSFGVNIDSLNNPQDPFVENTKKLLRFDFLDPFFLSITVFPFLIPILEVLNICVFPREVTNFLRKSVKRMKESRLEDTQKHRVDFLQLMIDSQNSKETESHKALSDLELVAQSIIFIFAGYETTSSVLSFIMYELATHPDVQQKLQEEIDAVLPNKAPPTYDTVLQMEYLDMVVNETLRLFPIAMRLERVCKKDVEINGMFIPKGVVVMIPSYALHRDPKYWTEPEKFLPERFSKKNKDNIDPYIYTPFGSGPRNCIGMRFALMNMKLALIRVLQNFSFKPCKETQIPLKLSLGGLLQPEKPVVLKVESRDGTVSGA
Chain of CYP450 2C9 (P11712 whole entry): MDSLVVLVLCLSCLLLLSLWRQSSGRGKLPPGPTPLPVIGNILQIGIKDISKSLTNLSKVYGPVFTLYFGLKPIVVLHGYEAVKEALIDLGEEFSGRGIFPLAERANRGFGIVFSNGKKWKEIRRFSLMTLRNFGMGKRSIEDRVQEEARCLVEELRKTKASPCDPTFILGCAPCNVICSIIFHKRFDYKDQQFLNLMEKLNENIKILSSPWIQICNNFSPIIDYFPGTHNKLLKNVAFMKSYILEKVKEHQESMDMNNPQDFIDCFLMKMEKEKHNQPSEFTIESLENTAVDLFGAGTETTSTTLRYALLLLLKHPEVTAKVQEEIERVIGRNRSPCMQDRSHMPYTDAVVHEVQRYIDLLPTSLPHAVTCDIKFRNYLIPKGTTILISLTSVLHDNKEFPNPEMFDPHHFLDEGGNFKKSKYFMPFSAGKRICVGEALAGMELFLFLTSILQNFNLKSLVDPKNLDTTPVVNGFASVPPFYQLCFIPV

## CC(C)(NC(=O)[C@H](N)Cc1c[nH]c2ccccc12)C(=O)O [D-Trp-Aib] (H-[dW]-[Aib]-OH)
CYP450 1A2
  activity in CYP450 screen: None of the results met significance criteria
HepG2 cells
  cytotoxic effect on HepG2 cells: no cytotoxic effect
[1]
  D-Trp-Aib concentration after incubation in serum: No decrease
[2]
  detection in brain tissue (transport through the blood-brain barrier): detected in all the assayed brain tissue samples
  exposure of the brain, intranasal compared to oral administration: higher exposure of the brain
[2]; [3]
  Cl (area)/kg: 19.1947 mL/min/kg
  Vd (area)/kg: 2.14474 L/kg
[2]; iv, 50 mg/kg
  AUC (0-t) (obs area): 2173.55
  AUCextra: 0.11%
[2]; po
  earliest detection post-dosing (rapidly absorbed): 15 min
[2]; po, 50 mg/kg
  AUC (0-t) (obs area): 453.91
  AUCextra: 0.24%
  Cl (area)/kg: 20.4857 mL/min/kg
  Vd (area)/kg: 1.90581 L/kg
CYP450 2C9
  activity in CYP450 screen: None of the results met significance criteria
CYP450 3A4
  activity in CYP450 screen: None of the results met significance criteria
PC-12 cells
  inhibition of β-amyloid cytotoxicity (MTT viability): highly effective in inhibiting the cytotoxicity of β-amyloid
